Experimental data: patent US20240226228A1, “ANTIMICROBIAL PEPTOID HAVING IMPROVED SELECTIVITY AND ANTIMICROBIAL COMPOSITION COMPRISING SAME” (priority 2021, published 2024)
≈ marks a conversion by molar mass, not a printed value. Where two headings read alike, the source gives them in different places. Where a SMILES comes first, the peptide text is derived from it. [ ]: non-standard residue; d: D form. Gly(N(CH2)2(3-indolyl)) = O=C(O)CNCCc1c[nH]c2ccccc12; Gly(N-CH2CH2-imidazol-4-yl) = O=C(O)CNCCc1c[nH]cn1; Nspe = C[C@H](NCC(=O)O)c1ccccc1; Nphe = O=C(O)CNCc1ccccc1; Nlys = NCCCCNCC(=O)O

Legend:
E. coli ATCC25922 = tested on: E. coli ATCC25922
Method: (§1) To measure the antimicrobial activity of the peptoids synthesized in Example 1, an E. coli ATCC25922 strain as gram-negative bacteria and an S. aureus KCTC25923 strain as gram-positive bacteris, were treated with the peptoids, followed by measuring the minimum inhibitory concentration (MIC). Peptoids 1 and 2 are antimicrobial peptoids known in the art, and used as controls for comparing antimicrobial activity with a novel peptoid.
(§2) Specifically, the S. aureus KCTC25923 or E. coli ATCC25922 strain was inoculated into a Mueller Hinton Broth (MHB2) liquid medium in which cations had been adjusted in the medium, cultured at 37° C. for 18 hours, subcultured, and then incubated for 4 hours. Afterward, for each bacterial strain, an optical density (OD, 0.001) was adjusted so that the bacterial count became 2×10^5 to 5×10^5 colony-forming units (CFU) per mL, which was then diluted with a MHB2 liquid medium containing 0.02% bovine serum albumin and 0.001% acetic acid, and dispensed at 100 μL into a 96-well microplate. Using sterile water, a peptoid stock 40 times stronger than a concentration to be tested was subjected to two-fold serial dilution and assessed at six different concentrations, and the maximum value of the peptoid concentrations was 25 μM. Subsequently, the plate was incubated at 37° C. for 24 hours. Afterward, optical density (OD) values at 600 nm were measured using a microplate reader (Bio-Rad).
(§3) Each MIC value was determined as the average value of a value obtained through three independent experiments.
(§4) Referring to Table 22, to measure the antimicrobial activity of the peptoids synthesized in Example 3, an MIC was measured by treating gram-negative bacteria, that is, the E. coli ATCC25922 strain, and gram-positive bacteria, that is, the S. aureus ATCC25923 strain, with the peptoids. Here, Peptoid 1 is a conventionally known antimicrobial peptoid, and Omiganan is a derivative of indolicidin, which is an antimicrobial peptide, under clinical development, and was used as a control for comparing antimicrobial activity with the novel peptoid.

S. aureus ATCC 25923 = tested on: S. aureus ATCC 25923
Method: as §1, §2, §3, §4

red blood cells = assay: Hemolysis assay; assay type: cell-based, Sprague-Dawley mouse
Summary of the method: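 Peptoid is mixed with 10% (v/v) PBS-washed erythrocytes (male Sprague-Dawley […], 13 weeks) and held 1 h at 37 °C. Hemolysis is calculated from 540 nm absorbance of the supernatant, with PBS as 0% and Triton X-100 as 100%.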

[1] = Tables 11-13, 24 hours at 37° C., maximum concentration 25 μM
[2] = Table 18, TFA salt vs counter ion-substituted (HCl, AcOH) peptoids

Compound	MIC E. coli ATCC25922 (E. coli ATCC25922; [1]) [µM]	MIC S. aureus ATCC 25923 (S. aureus ATCC 25923; [1]) [µM]	HC10 (red blood cells) [µM]	HC50 (red blood cells) [µM]	Hmax (100 μM) (red blood cells) [%]	MIC E. coli ATCC25922 (E. coli ATCC25922; [2]) [µM]	MIC S. aureus ATCC 25923 (S. aureus ATCC 25923; [2]) [µM]	MIC E. coli ATCC25922 (E. coli ATCC25922; ATCC25922) [µM]	MIC S. aureus ATCC 25923 (S. aureus ATCC 25923; ATCC 25923) [µM]
NCCCCNCC(=O)N(CC(=O)N(CC(=O)N(CCCCN)CC(=O)N(CC(=O)N(CC(=O)N(CCCCN)CC(=O)N(CC(=O)N(CC(=O)N(CCCCN)CC(=O)N(CC(=O)N(CC(N)=O)Cc1ccccc1)Cc1ccccc1)Cc1ccccc1)Cc1ccccc1)Cc1ccccc1)Cc1ccccc1)Cc1ccccc1)Cc1ccccc1 [Peptoid 2] (H-[Nlys][Nphe][Nphe][Nlys][Nphe][Nphe][Nlys][Nphe][Nphe][Nlys][Nphe][Nphe]-NH2)	12.5 (≈ 21.3 µg/mL)	3.1 (≈ 5.29 µg/mL)	20.4	> 100.0	17.7 ± 1.1	–	–	–	–
C[C@@H](c1ccccc1)N(CC(=O)N(CCc1c[nH]c2ccccc12)CC(N)=O)C(=O)CN(CCCCN)C(=O)CN(C(=O)CN(C(=O)CN(CCCCN)C(=O)CN(C(=O)CN(C(=O)CN(CCCCN)C(=O)CN(C(=O)CN(C(=O)CNCCCCN)[C@@H](C)c1ccccc1)[C@@H](C)c1ccccc1)[C@@H](C)c1ccccc1)[C@@H](C)c1ccccc1)[C@@H](C)c1ccccc1)[C@@H](C)c1ccccc1 [Peptoid 7] (H-[Nlys][Nspe][Nspe][Nlys][Nspe][Nspe][Nlys][Nspe][Nspe][Nlys][Nspe][Gly(N(CH2)2(3-indolyl))]-NH2)	6.3 (≈ 11.7 µg/mL)	3.1 (≈ 5.76 µg/mL)	7.8	23.8	94.1 ± 4.3	–	–	–	–
C[C@@H](c1ccccc1)N(CC(N)=O)C(=O)CN(C(=O)CN(CCCCN)C(=O)CN(C(=O)CN(C(=O)CN(CCCCN)C(=O)CN(CCc1c[nH]c2ccccc12)C(=O)CN(C(=O)CN(CCCCN)C(=O)CN(C(=O)CN(C(=O)CNCCCCN)[C@@H](C)c1ccccc1)[C@@H](C)c1ccccc1)[C@@H](C)c1ccccc1)[C@@H](C)c1ccccc1)[C@@H](C)c1ccccc1)[C@@H](C)c1ccccc1 [Peptoid 9]	3.1 (≈ 5.76 µg/mL)	1.6 (≈ 2.97 µg/mL)	10.6	31.9	106.4 ± 0.6	–	–	–	–
C[C@@H](c1ccccc1)N(CC(N)=O)C(=O)CN(C(=O)CN(CCCCN)C(=O)CN(C(=O)CN(C(=O)CN(CCCCN)C(=O)CN(C(=O)CN(C(=O)CN(CCCCN)C(=O)CN(CCc1c[nH]c2ccccc12)C(=O)CN(C(=O)CNCCCCN)[C@@H](C)c1ccccc1)[C@@H](C)c1ccccc1)[C@@H](C)c1ccccc1)[C@@H](C)c1ccccc1)[C@@H](C)c1ccccc1)[C@@H](C)c1ccccc1 [Peptoid 10-1]	–	–	15.3	37.8	81.5 ± 7.4	6.3	3.1	–	–
C[C@@H](c1ccccc1)N(CC(N)=O)C(=O)CN(C(=O)CN(CCCCN)C(=O)CN(C(=O)CN(C(=O)CN(CCCCN)C(=O)CN(C(=O)CN(C(=O)CN(CCCCN)C(=O)CN(CCc1c[nH]c2ccccc12)C(=O)CN(C(=O)CNCCCCN)[C@@H](C)c1ccccc1)[C@@H](C)c1ccccc1)[C@@H](C)c1ccccc1)[C@@H](C)c1ccccc1)[C@@H](C)c1ccccc1)[C@@H](C)c1ccccc1 [Peptoid 10-2]	–	–	14.1	29.4	102.3 ± 11.3	6.3	1.6	–	–
C[C@@H](c1ccccc1)N(CC(=O)N(CCCCN)CC(=O)N(CC(=O)N(CC(=O)N(CCCCN)CC(=O)N(CC(=O)N(CC(=O)N(CCCCN)CC(=O)N(CCc1c[nH]c2ccccc12)CC(=O)N(CCc1c[nH]c2ccccc12)CC(N)=O)[C@@H](C)c1ccccc1)[C@@H](C)c1ccccc1)[C@@H](C)c1ccccc1)[C@@H](C)c1ccccc1)C(=O)CN(C(=O)CNCCCCN)[C@@H](C)c1ccccc1 [Peptoid 11-1] (H-[Nlys][Nspe][Nspe][Nlys][Nspe][Nspe][Nlys][Nspe][Nspe][Nlys][Gly(N(CH2)2(3-indolyl))][Gly(N(CH2)2(3-indolyl))]-NH2)	–	–	10.1	21.5	113.9 ± 1.7	3.1	3.1	–	–
C[C@@H](c1ccccc1)N(CC(=O)N(CCCCN)CC(=O)N(CC(=O)N(CC(=O)N(CCCCN)CC(=O)N(CC(=O)N(CC(=O)N(CCCCN)CC(=O)N(CCc1c[nH]c2ccccc12)CC(=O)N(CCc1c[nH]c2ccccc12)CC(N)=O)[C@@H](C)c1ccccc1)[C@@H](C)c1ccccc1)[C@@H](C)c1ccccc1)[C@@H](C)c1ccccc1)C(=O)CN(C(=O)CNCCCCN)[C@@H](C)c1ccccc1 [Peptoid 11-2] (H-[Nlys][Nspe][Nspe][Nlys][Nspe][Nspe][Nlys][Nspe][Nspe][Nlys][Gly(N(CH2)2(3-indolyl))][Gly(N(CH2)2(3-indolyl))]-NH2)	–	–	8.7	29.7	110.4 ± 0.2	3.1	1.6	–	–
C[C@@H](c1ccccc1)N(CC(N)=O)C(=O)CN(C(=O)CN(CCCCN)C(=O)CN(CCc1c[nH]c2ccccc12)C(=O)CN(CCc1c[nH]c2ccccc12)C(=O)CN(CCCCN)C(=O)CN(C(=O)CN(C(=O)CN(CCCCN)C(=O)CN(C(=O)CN(C(=O)CNCCCCN)[C@@H](C)c1ccccc1)[C@@H](C)c1ccccc1)[C@@H](C)c1ccccc1)[C@@H](C)c1ccccc1)[C@@H](C)c1ccccc1 [Peptoid 12]	6.3 (≈ 12 µg/mL)	1.6 (≈ 3.04 µg/mL)	29.1	65.2	87.4 ± 2.4	–	–	–	–
C[C@@H](c1ccccc1)N(CC(N)=O)C(=O)CN(C(=O)CN(CCCCN)C(=O)CN(C(=O)CN(C(=O)CN(CCCCN)C(=O)CN(CCc1c[nH]c2ccccc12)C(=O)CN(CCc1c[nH]c2ccccc12)C(=O)CN(CCCCN)C(=O)CN(C(=O)CN(C(=O)CNCCCCN)[C@@H](C)c1ccccc1)[C@@H](C)c1ccccc1)[C@@H](C)c1ccccc1)[C@@H](C)c1ccccc1)[C@@H](C)c1ccccc1 [Peptoid 13]	6.3 (≈ 12 µg/mL)	<0.8	20.2	41.3	96.8 ± 1.6	–	–	–	–
C[C@@H](c1ccccc1)N(CC(N)=O)C(=O)CN(C(=O)CN(CCCCN)C(=O)CN(C(=O)CN(C(=O)CN(CCCCN)C(=O)CN(C(=O)CN(C(=O)CN(CCCCN)C(=O)CN(CCc1c[nH]c2ccccc12)C(=O)CN(CCc1c[nH]c2ccccc12)C(=O)CNCCCCN)[C@@H](C)c1ccccc1)[C@@H](C)c1ccccc1)[C@@H](C)c1ccccc1)[C@@H](C)c1ccccc1)[C@@H](C)c1ccccc1 [Peptoid 14-1]	–	–	19.2	68.2	75.3 ± 5.0	3.1	3.1	–	–
C[C@@H](c1ccccc1)N(CC(=O)N(CCCCN)CC(=O)N(CC(=O)N(CC(=O)N(CCCCN)CC(=O)N(CCCCN)CC(=O)N(CCc1c[nH]cn1)CC(N)=O)[C@@H](C)c1ccccc1)[C@@H](C)c1ccccc1)C(=O)CN(C(=O)CN(CCCCN)C(=O)CN(CCc1c[nH]c2ccccc12)C(=O)CN(CCc1c[nH]c2ccccc12)C(=O)CNCCCCN)[C@@H](C)c1ccccc1 [Peptoid 71] (H-[Nlys][Gly(N(CH2)2(3-indolyl))][Gly(N(CH2)2(3-indolyl))][Nlys][Nspe][Nspe][Nlys][Nspe][Nspe][Nlys][Nlys][Gly(N-CH2CH2-imidazol-4-yl)]-NH2)	–	–	–	–	–	–	–	>25	>25
